Measurements published in patent US20240034737A1, “Heterocyclic Derivatives as P2X7 Receptor Antagonists” (BREYE THERAPEUTICS APS, priority 2020, published 2024).

What was measured:
P2X7 receptor = P2X7 receptor (Homo sapiens (Human), UniProt Q99572); assay: Human P2X7 channel calcium-influx assay (Fluo-8 NW, FLIPR TETRA, Bz-ATP stimulation); type: cell-based; conditions: HEK-293 cells stably transfected with P2X7 receptor, Low Divalent Cation Assay Buffer, read-out: hP2X7 IC50
Procedure, shortened: (§1)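 HEK-293 cells stably expressing human or mouse P2X7, preloaded with Fluo-8 NW dye for 1 h at RT. Compounds added, Bz-ATP-evoked Ca2+ influx followed as fluorescence kinetics over 5 min on FLIPR TETRA; A438079 served as reference antagonist.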

CYP4503A4 = CYP4503A4 metabolic induction (mRNA expression) in human cryopreserved platable hepatocytes; type: in vitro ADME; conditions: 10 μM test compound, two days treatment, mRNA by QuantiGene Plex 2.0
Protocol: In Vitro Evaluation of Test Compounds for CYP4503A4 Metabolic Induction Using Human Liver Hepatocytes.
CYP induction assessment was performed using human cryopreserved platable hepatocytes. Test compound was assessed at three or six different concentrations in duplicate.
A sandwich culture of platable cryopreserved hepatocytes was used with one day recovery period after plating. Assessment of cell morphology and confluency was performed using a phase-contrast microscope for representative wells.
The plated hepatocyte cell monolayers were treated with test compound, negative and positive controls for two days changing medium every 24 hours. On the fourth day, assessment of cell morphology and confluency was repeated to ensure cell monolayer integrity. Assessment of cell morphology and confluency was performed using a phase-contrast microscope for representative wells.
Cell monolayers were assessed for test compound cytotoxicity by an adenosine triphosphate (ATP) content assay in a separate plate.
Expression levels of mRNA for CYP1A2, CYP2B6, and CYP3A4 were evaluated by the QuantiGene® Plex 2.0 methodology.

mP2X7 = mP2X7 (Mus musculus (Mouse), UniProt Q9Z1M0); assay: mP2X7 channel calcium-influx assay (Fluo-8 NW, FLIPR TETRA, Bz-ATP stimulation); type: cell-based
mP2X7, sequence (Q9Z1M0 whole entry): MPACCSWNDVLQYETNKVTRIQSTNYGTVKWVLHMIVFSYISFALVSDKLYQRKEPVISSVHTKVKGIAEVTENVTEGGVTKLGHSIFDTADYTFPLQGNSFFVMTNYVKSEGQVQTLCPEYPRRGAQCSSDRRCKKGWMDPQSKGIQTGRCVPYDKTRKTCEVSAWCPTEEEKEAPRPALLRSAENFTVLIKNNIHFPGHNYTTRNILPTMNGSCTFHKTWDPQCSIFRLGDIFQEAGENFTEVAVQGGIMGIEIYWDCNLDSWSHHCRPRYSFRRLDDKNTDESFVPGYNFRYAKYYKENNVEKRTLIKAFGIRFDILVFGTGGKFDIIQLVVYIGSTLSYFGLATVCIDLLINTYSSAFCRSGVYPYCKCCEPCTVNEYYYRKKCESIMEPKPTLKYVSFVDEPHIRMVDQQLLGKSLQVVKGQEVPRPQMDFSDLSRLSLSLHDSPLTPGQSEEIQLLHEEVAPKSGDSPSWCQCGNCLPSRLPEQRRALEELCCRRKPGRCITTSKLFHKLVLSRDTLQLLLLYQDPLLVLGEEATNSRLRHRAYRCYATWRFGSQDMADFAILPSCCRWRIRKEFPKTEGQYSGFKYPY
Procedure, shortened: as §1

P2X7 receptor, sequence (Q99572 whole entry): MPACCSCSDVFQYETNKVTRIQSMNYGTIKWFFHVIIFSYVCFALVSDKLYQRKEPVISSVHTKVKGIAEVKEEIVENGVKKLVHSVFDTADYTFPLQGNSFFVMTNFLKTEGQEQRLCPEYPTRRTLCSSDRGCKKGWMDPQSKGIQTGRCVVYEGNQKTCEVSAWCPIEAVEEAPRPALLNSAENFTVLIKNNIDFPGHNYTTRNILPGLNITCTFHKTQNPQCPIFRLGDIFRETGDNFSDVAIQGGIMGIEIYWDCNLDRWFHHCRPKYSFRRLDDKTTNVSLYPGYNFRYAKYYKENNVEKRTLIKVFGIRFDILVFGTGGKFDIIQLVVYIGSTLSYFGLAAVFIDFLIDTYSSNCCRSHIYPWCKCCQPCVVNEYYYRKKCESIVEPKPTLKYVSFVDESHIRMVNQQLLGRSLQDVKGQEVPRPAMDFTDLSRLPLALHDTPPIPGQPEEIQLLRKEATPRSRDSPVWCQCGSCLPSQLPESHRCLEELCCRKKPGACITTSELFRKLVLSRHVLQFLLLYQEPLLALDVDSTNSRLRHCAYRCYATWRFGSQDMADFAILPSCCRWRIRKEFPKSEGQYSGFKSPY

Compound	IC50 (P2X7 receptor) [µM]	CYP4503A4 mRNA fold increase at 10 μM (CYP4503A4) [fold]	IC50 (mP2X7) [µM]
O=C(NCC(c1scnc1C(F)F)N1CCC(Oc2nc(C3CC3)ns2)CC1)c1c(F)cccc1Cl (stereo not drawn) [Example 13, 2-Chloro-N-(2-{4-[(3-cyclopropyl-1,2,4-thiadiazol-5-yl)oxy]piperidin-1-yl}-2-[4-(difluoromethyl)-1,3-thiazol-5-yl]ethyl)-6-fluorobenzamide]	0.0192	9.7	0.0334
O=C(NCC(c1scnc1C(F)F)N1CCC(Oc2cncc3nncn23)CC1)c1c(F)cccc1Cl (stereo not drawn) [Example 45]	0.254	1.9	0.55
O=C(NCC(c1scnc1C(F)F)N1CCC(Oc2nccn3cnnc23)CC1)c1c(F)cccc1Cl (stereo not drawn) [Example 46, 2-Chloro-N-{2-[4-(difluoromethyl)-1,3-thiazol-5-yl]-2-(4-{[1,2,4]triazolo[4,3-a]pyrazin-8-yloxy}piperidin-1-yl)ethyl}-6-fluorobenzamide]	0.264	4.5	0.658
O=C(NCC(c1scnc1C(F)F)N1CCC(Oc2ccnc3cccnc23)CC1)c1c(F)cccc1Cl (stereo not drawn) [Example 48, 2-Chloro-N-{2-[4-(difluoromethyl)-1,3-thiazol-5-yl]-2-[4-(1,5-naphthyridin-4-yloxy)piperidin-1-yl]ethyl}-6-fluorobenzamide]	0.0749	7.6	0.036
COc1cc(OC2CCN(C(CNC(=O)c3c(F)cccc3Cl)c3scnc3C(F)F)CC2)ncn1 (stereo not drawn) [Example 65, 2-Chloro-N-{2-[4-(difluoromethyl)-1,3-thiazol-5-yl]-2-{4-[(6-methoxypyrimidin-4-yl)oxy]piperidin-1-yl}ethyl}-6-fluorobenzamide]	0.0562	4.9	0.0962
O=C(NCC(c1scnc1C(F)F)N1CCC(Oc2nccc(Cl)n2)CC1)c1c(F)cccc1Cl (stereo not drawn) [Example 75, 2-chloro-N-(2-{4-[(4-chloropyrimidin-2-yl)oxy]piperidin-1-yl}-2-[4-(difluoromethyl)-1,3-thiazol-5-yl]ethyl)-6-fluorobenzamide]	0.0538	2.2	0.0821
O=C(NCC(c1scnc1C(F)F)N1CCC(Oc2cncc(Cl)n2)CC1)c1c(F)cccc1Cl (stereo not drawn) [Example 76, 2-Chloro-N-(2-{4-[(6-chloropyrazin-2-yl)oxy]piperidin-1-yl}-2-[4-(difluoromethyl)-1,3-thiazol-5-yl]ethyl)-6-fluorobenzamide]	0.0437	5.1	0.0289
O=C(NCC(c1scnc1C(F)F)N1CCC(Oc2ccncn2)CC1)c1c(F)cccc1Cl (stereo not drawn) [Example 78, 2-Chloro-N-{2-[4-(difluoromethyl)-1,3-thiazol-5-yl]-2-[4-(pyrimidin-4-yloxy)piperidin-1-yl]ethyl}-6-fluorobenzamide]	0.0731	3.6	0.18
O=C(NCC(c1scnc1C(F)F)N1CCC(Oc2ccnc(F)c2)CC1)c1c(F)cccc1Cl (stereo not drawn) [Example 80, 2-Chloro-N-{2-[4-(difluoromethyl)-1,3-thiazol-5-yl]-2-{4-[(2-fluoropyridin-4-yl)oxy]piperidin-1-yl}ethyl}-6-fluorobenzamide]	0.0203	6.0	0.0369
O=C(NCC(c1scnc1C(F)F)N1CCC(Oc2cc(F)ccn2)CC1)c1c(F)cccc1Cl (stereo not drawn) [Example 81, 2-chloro-N-{2-[4-(difluoromethyl)-1,3-thiazol-5-yl]-2-{4-[(4-fluoropyridin-2-yl)oxy]piperidin-1-yl}ethyl}-6-fluorobenzamide]	0.0201	4.8	0.0381
O=C(NCC(c1scnc1C(F)F)N1CCC(COc2nc(C3CC3)ns2)CC1)c1c(F)cccc1Cl (stereo not drawn) [Example 87, 2-Chloro-N-[2-(4-{[(3-cyclopropyl-1,2,4-thiadiazol-5-yl)oxy]methyl}piperidin-1-yl)-2-[4-(difluoromethyl)-1,3-thiazol-5-yl]ethyl]-6-fluorobenzamide]	0.0369	6.4	0.0304
N#Cc1cncc(OCC2CCN(C(CNC(=O)c3c(F)cccc3Cl)c3scnc3C(F)F)CC2)c1 (stereo not drawn) [Example 91, 2-Chloro-N-[2-(4-{[(5-cyanopyridin-3-yl)oxy]methyl}piperidin-1-yl)-2-[4-(difluoromethyl)-1,3-thiazol-5-yl]ethyl]-6-fluorobenzamide]	0.0395	7.4	0.0389

Further lines, results first:

IC50 (P2X7 receptor) [µM]	CYP4503A4 mRNA fold increase at 10 μM (CYP4503A4) [fold]	IC50 (mP2X7) [µM]	Compound
0.0213	6.0	0.082	O=C(NCC(c1scnc1C(F)F)N1CCC(Oc2ccc(F)nn2)CC1)c1c(F)cccc1Cl (stereo not drawn) [Example 32, 2-Chloro-N-{2-[4-(difluoromethyl)-1,3-thiazol-5-yl]-2-{4-[(6-fluoropyridazin-3-yl)oxy]piperidin-1-yl}ethyl}-6-fluorobenzamide]
0.0649	2.4	0.0709	Cc1cc(OC2CCN(C(CNC(=O)c3c(F)cccc3Cl)c3scnc3C(F)F)CC2)ccn1 (stereo not drawn) [Example 73, 2-Chloro-N-{2-[4-(difluoromethyl)-1,3-thiazol-5-yl]-2-{4-[(2-methylpyridin-4-yl)oxy]piperidin-1-yl}ethyl}-6-fluorobenzamide]
0.0324	9.7	0.0687	Cc1nsc(OCC2CCN(C(CNC(=O)c3c(F)cccc3Cl)c3scnc3C(F)F)CC2)n1 (stereo not drawn) [Example 85, 2-Chloro-N-{2-[4-(difluoromethyl)-1,3-thiazol-5-yl]-2-(4-{[(3-methyl-1,2,4-thiadiazol-5-yl)oxy]methyl}piperidin-1-yl)ethyl}-6-fluorobenzamide]
0.0436	6.5	0.0227	O=C(NCC(c1scnc1C(F)F)N1CCC(COc2nc3ccccc3s2)CC1)c1c(F)cccc1Cl (stereo not drawn) [Example 93, N-(2-{4-[(1,3-Benzothiazol-2-yloxy)methyl]piperidin-1-yl}-2-[4-(difluoromethyl)-1,3-thiazol-5-yl]ethyl)-2-chloro-6-fluorobenzamide]
0.0878	3.9	0.0766	Cc1ccc(OCC2CCN(C(CNC(=O)c3c(F)cccc3Cl)c3scnc3C(F)F)CC2)nn1 (stereo not drawn) [Example 101, 2-Chloro-N-{2-[4-(difluoromethyl)-1,3-thiazol-5-yl]-2-(4-{[(6-methylpyridazin-3-yl)oxy]methyl}piperidin-1-yl)ethyl}-6-fluorobenzamide]
0.0211	5.0	0.034	O=C(NCC(c1scnc1C(F)F)N1CCC(COc2cc(F)ncn2)CC1)c1c(F)cccc1Cl (stereo not drawn) [Example 103, 2-Chloro-N-{2-[4-(difluoromethyl)-1,3-thiazol-5-yl]-2-(4-{[(6-fluoropyrimidin-4-yl)oxy]methyl}piperidin-1-yl)ethyl}-6-fluorobenzamide]
0.0496	7.4	0.103	O=C(NCC(c1scnc1C(F)F)N1CCC(COc2ccc(F)nn2)CC1)c1c(F)cccc1Cl (stereo not drawn) [Example 104, 2-Chloro-N-{2-[4-(difluoromethyl)-1,3-thiazol-5-yl]-2-(4-{[(6-fluoropyridazin-3-yl)oxy]methyl}piperidin-1-yl)ethyl}-6-fluorobenzamide]
0.0396	4.9	0.0305	O=C(NCC(c1scnc1C(F)F)N1CCC(COc2nccnc2F)CC1)c1c(F)cccc1Cl (stereo not drawn) [Example 106, 2-Chloro-N-{2-[4-(difluoromethyl)-1,3-thiazol-5-yl]-2-(4-{[(3-fluoropyrazin-2-yl)oxy]methyl}piperidin-1-yl)ethyl}-6-fluorobenzamide]
0.0406	6.5	0.025	N#Cc1cc(OCC2CCN(C(CNC(=O)c3c(F)cccc3Cl)c3scnc3C(F)F)CC2)ccn1 (stereo not drawn) [Example 110, 2-Chloro-N-[2-(4-{[(2-cyanopyridin-4-yl)oxy]methyl}piperidin-1-yl)-2-[4-(difluoromethyl)-1,3-thiazol-5-yl]ethyl]-6-fluorobenzamide]
0.0285	9.8	0.0113	O=C(NCC(c1scnc1C(F)F)N1CCC(COc2nccn3nccc23)CC1)c1c(F)cccc1Cl (stereo not drawn) [Example 116, 2-Chloro-N-{2-[4-(difluoromethyl)-1,3-thiazol-5-yl]-2-[4-({pyrazolo[1,5-a]pyrazin-4-yloxy}methyl)piperidin-1-yl]ethyl}-6-fluorobenzamide]
0.0181	6.9	0.0185	O=C(NCC(c1scnc1C(F)F)N1CCC(COc2cccc(F)n2)CC1)c1c(F)cccc1Cl (stereo not drawn) [Example 124, 2-Chloro-N-{2-[4-(difluoromethyl)-1,3-thiazol-5-yl]-2-(4-{[(6-fluoropyridin-2-yl)oxy]methyl}piperidin-1-yl)ethyl}-6-fluorobenzamide]
